In patent publication US4241069A, “3-Methylene flavanones and 3-methylene chromanones” (Miles Laboratories, Inc., priority 1979, dated 1980):
≈ marks a conversion by molar mass, not a printed value.

What was measured:
Assay in all cases: MIC, agar incorporation method
[1] = tested on: A. fumigatus NRRL 165; type: cell-based; conditions: Aspergillus fumigatus, NRRL165, 32° C., 48-72 hours, read-out: Minimal Inhibitory Concentration
Protocol: (§1) The compounds of the present invention were tested for their ability to inhibit the growth of microorganisms by in vitro tests. Generally the in vitro tests involve growing representative microorganisms under conditions favorable to such growth and measuring the effectiveness of one or more compounds in inhibiting or destroying the growth of the microorganisms. The microorganisms used include representative bacteria, fungi and yeasts.
(§2) A representative selection of the test microorganisms were cultured in a nutrient broth, such as, for example, Eugon, commercially available from Difco Laboratories, Detroit, Michigan. Bacteria and Candida species were cultured for 24 hours at 32°-37° C. and fungi were cultured for approximately one week at 32° C. Inocula were prepared by suspending the growth or spores from a slant culture in sufficient sterile normal (0.9 percent) saline or Eugon broth, to yield cell or spore concentrations of 1,000,000 cells per milliliter. Anaerobic bacteria were cultured for 48-72 hours at 32°-37° C. in a thioglycollate containing medium, for example, Fluid Thioglycollate medium or NIH thioglycollate broth, commercially available from Difco Laboratories.
(§3) The compounds of the present invention were tested for activity against bacteria, yeasts and fungi by the agar incorporation method described below. MA 1347, 3-(dimethylaminomethyl)flavanone (disclosed in U.S. Pat. No. 3,753,985) was used as a comparative standard along with controls for each solvent system used.
(§4) A series of agar plates containing two-fold dilutions of each compound to be tested, ranging in concentration from 100 to 3.1 mcg/ml of agar medium was prepared. Aliquots of each concentration (100, 50, 25, 12.5, 6.2, and 3.1) prepared in N,N-dimethylformamide or 50 percent aqueous DMF were added to liquid Eugon agar at 48° C. (one part test solution to 100 parts agar). In some cases, tests with further dilutions to 0.125 mcg/ml were conducted. The agar medium, containing the 3-methylene flavanone or chromanone compound to be tested, was then dispensed into petri dishes and allowed to solidify. The solidified plates were kept overnight at room temperatures to dry the surface of the agar.
(§5) The agar plates were then inoculated with a drop of the standardized cell or spore suspension. Inoculated plates were incubated at 32° C. The inhibition end-point or minimum inhibitory concentration (MIC) shown in Table D represent the lowest concentration of test compound which inhibited the growth of the microorganism. Visual determination of growth inhibition was used. Bacteria and yeast end-points were determined after 24 hours incubation; molds, dermatophytes and anaerobes after 48-72 hours incubation. MIC values shown as ranges represent the extremes found in repeat assays. Virtually all such values were written plus or minus one dilution, the accepted variation of a two-fold dilution assay.

[2] = tested on: Aspergillus niger ATCC 16404; type: cell-based; conditions: ATCC16404, 32° C., 48-72 hours, read-out: Minimal Inhibitory Concentration
Protocol: as §1, §2, §3, §4, §5

[3] = tested on: C. albicans NRRL Y-477; type: cell-based; conditions: Candida albicans, NRRLY477, 32° C., 24 hours, read-out: Minimal Inhibitory Concentration
Protocol: as §1, §2, §3, §4, §5

[4] = tested on: C. guillermondii VM 42; type: cell-based; conditions: 32° C., 24 hours; read-out: Minimal Inhibitory Concentration
Protocol: as §1, §2, §3, §4, §5

[5] = tested on: C. krusei VM 29B; type: cell-based; conditions: Pichia kudriavzevii, VM29B; 32° C., 24 hours; read-out: Minimal Inhibitory Concentration
Protocol: as §1, §2, §3, §4, §5

[6] = tested on: C. tropicalis NRRL Y1410; type: cell-based; conditions: Candida tropicalis, NRRLY1410; 32° C., 24 hours; read-out: Minimal Inhibitory Concentration
Protocol: as §1, §2, §3, §4, §5

[7] = tested on: Candida albicans ATCC 10231; type: cell-based; conditions: ATCC10231, C. albicans ATCC 10231, 32° C., 24 hours, read-out: Minimal Inhibitory Concentration
Protocol: as §1, §2, §3, §4, §5

[8] = tested on: Escherichia coli ATCC 8739; type: cell-based; conditions: ATCC8739, 32° C., 24 hours, read-out: Minimal Inhibitory Concentration
Protocol: as §1, §2, §3, §4, §5

[9] = tested on: Microsporum gypseum ATCC 14683; type: cell-based; conditions: Nannizzia gypsea, ATCC14683, 32° C., 48-72 hours; read-out: Minimal Inhibitory Concentration
Protocol: as §1, §2, §3, §4, §5

[10] = tested on: Pseudomonas aeruginosa ATCC 14502; type: cell-based; conditions: ATCC14502, 32° C., 24 hours, read-out: Minimal Inhibitory Concentration
Protocol: as §1, §2, §3, §4, §5

[11] = tested on: Staphylococcus aureus ATCC 6538; type: cell-based; conditions: Staphylococcus aureus, ATCC6538; S. aureus ATCC 6538; 32° C., 24 hours; read-out: Minimal Inhibitory Concentration
Protocol: as §1, §2, §3, §4, §5

[12] = tested on: Streptococcus faecalis ATCC 10541; type: cell-based; conditions: Enterococcus faecalis, ATCC10541; 32° C., 24 hours; read-out: Minimal Inhibitory Concentration
Protocol: as §1, §2, §3, §4, §5

[13] = tested on: T. mentagrophytes CDC; type: cell-based; conditions: Trichophyton mentagrophytes, 32° C., 48-72 hours, read-out: Minimal Inhibitory Concentration
Protocol: as §1, §2, §3, §4, §5

[14] = tested on: T. mentagrophytes TM-2; type: cell-based; conditions: Trichophyton mentagrophytes, TM2, 32° C., 48-72 hours, read-out: Minimal Inhibitory Concentration
Protocol: as §1, §2, §3, §4, §5

[15] = tested on: T. rubrum ATCC 10218; type: cell-based; conditions: Trichophyton rubrum, ATCC10218; 32° C., 48-72 hours; read-out: Minimal Inhibitory Concentration
Protocol: as §1, §2, §3, §4, §5

[16] = tested on: Trichophyton mentagrophytes ATCC 4807; type: cell-based; conditions: ATCC4807, 32° C., 48-72 hours, read-out: Minimal Inhibitory Concentration
Protocol: as §1, §2, §3, §4, §5

[17] = tested on: S. aureus NRRL B2747; type: cell-based, Staphylococcus aureus; conditions: Staphylococcus aureus, NRRLB2747, 32° C., 24 hours, read-out: Minimal Inhibitory Concentration
Protocol: as §1, §2, §3, §4, §5

| MIC [1] [µg/mL] | MIC [2] [µg/mL] | MIC [3] [µg/mL] | MIC [4] [µg/mL] | MIC [5] [µg/mL] | MIC [6] [µg/mL] | MIC [7] [µg/mL] | MIC [8] [µg/mL] | MIC [9] [µg/mL] | MIC [10] [µg/mL] | MIC [11] [µg/mL] | MIC [12] [µg/mL] | MIC [13] [µg/mL] | MIC [14] [µg/mL] | MIC [15] [µg/mL] | MIC [16] [µg/mL] | MIC [17] [µg/mL] | SMILES |
| --- | --- | --- | --- | --- | --- | --- | --- | --- | --- | --- | --- | --- | --- | --- | --- | --- | --- |
| 50 (≈ 159 µM) | 50 (≈ 159 µM) | 25 (≈ 79.3 µM) | 25 (≈ 79.3 µM) | 25 (≈ 79.3 µM) | 25 (≈ 79.3 µM) | 25 (≈ 79.3 µM) | > 100 | 6.2 (≈ 19.7 µM) | > 100 | ≤ 3.1 | 25 (≈ 79.3 µM) | 12.5 (≈ 39.7 µM) | 6.2 (≈ 19.7 µM) | 6.2 (≈ 19.7 µM) | 6.2 (≈ 19.7 µM) | 6.2 (≈ 19.7 µM) | C=C1C(=O)c2ccccc2OC1c1ccc(Br)cc1 (stereo not shown) [Ex. 6, 4'-bromo-3-methylene flavanone] |
| 100 (≈ 383 µM) | 50 (≈ 191 µM) | 50 (≈ 191 µM) | 100 (≈ 383 µM) | 50 (≈ 191 µM) | 50 (≈ 191 µM) | 50 (≈ 191 µM) | > 100 | 12.5 (≈ 47.8 µM) | > 100 | 12.5 (≈ 47.8 µM) | 100 (≈ 383 µM) | 25 (≈ 95.7 µM) | 12.5 (≈ 47.8 µM) | 6.2 (≈ 23.7 µM) | 12.5 (≈ 47.8 µM) | 12.5 (≈ 47.8 µM) | C=C1C(=O)c2ccccc2OC1c1ccc(C#N)cc1 (stereo not shown) [Ex. 16, 4'-cyano-3-methylene flavanone] |

Further lines, the compound ahead of its results:

| SMILES | MIC [1] [µg/mL] | MIC [2] [µg/mL] | MIC [3] [µg/mL] | MIC [4] [µg/mL] | MIC [5] [µg/mL] | MIC [6] [µg/mL] | MIC [7] [µg/mL] | MIC [8] [µg/mL] | MIC [9] [µg/mL] | MIC [10] [µg/mL] | MIC [11] [µg/mL] | MIC [12] [µg/mL] | MIC [13] [µg/mL] | MIC [14] [µg/mL] | MIC [15] [µg/mL] | MIC [16] [µg/mL] | MIC [17] [µg/mL] |
| --- | --- | --- | --- | --- | --- | --- | --- | --- | --- | --- | --- | --- | --- | --- | --- | --- | --- |
| C=C1C(=O)c2ccccc2OC1c1cccc([N+](=O)[O-])c1 (stereo not shown) [compound 9, 3'-nitro-3-methylene flavanone] | 100 (≈ 356 µM) | 50 (≈ 178 µM) | 50 (≈ 178 µM) | 100 (≈ 356 µM) | 50 (≈ 178 µM) | 50 (≈ 178 µM) | 50 (≈ 178 µM) | > 100 | 6.2 (≈ 22 µM) | > 100 | 6.2 (≈ 22 µM) | 50 (≈ 178 µM) | 12.5 (≈ 44.4 µM) | 6.2 (≈ 22 µM) | 6.2 (≈ 22 µM) | 12.5 (≈ 44.4 µM) | 6.2 (≈ 22 µM) |
| C=C1C(=O)c2ccccc2OC1c1ccc2ccccc2c1 (stereo not shown) [compound 24, 3-methylene-2-(2-naphthyl) chromanone] | > 100 | > 100 | 100 (≈ 349 µM) | > 100 | 25 (≈ 87.3 µM) | > 100 | > 100 | > 100 | 12.5 (≈ 43.7 µM) | > 100 | ≤ 3.1 | 50 (≈ 175 µM) | 25 (≈ 87.3 µM) | 12.5 (≈ 43.7 µM) | 6.2 (≈ 21.7 µM) | 12.5 (≈ 43.7 µM) | 6.2 (≈ 21.7 µM) |
| C=C1C(=O)c2ccccc2OC1c1cccc(Cl)c1 (stereo not shown) [Ex. 2, 3'-chloro-3-methylene flavanone] | 100 (≈ 369 µM) | 100 (≈ 369 µM) | 25 (≈ 92.3 µM) | 50 (≈ 185 µM) | 25 (≈ 92.3 µM) | 50 (≈ 185 µM) | 25 (≈ 92.3 µM) | > 100 | 6.2 (≈ 22.9 µM) | > 100 | ≤ 3.1 | 25 (≈ 92.3 µM) | 12.5 (≈ 46.2 µM) | 6.2 (≈ 22.9 µM) | ≤ 3.1 | 6.2 (≈ 22.9 µM) | 6.2 (≈ 22.9 µM) |
